Laboratory results from publication PMC7773830, “Necator americanus Ancylostoma Secreted Protein-2 (Na-ASP-2) Binds an Ascaroside (ascr#3) in Its Fatty Acid Binding Site” (Frontiers in Chemistry, 2020).
Read-outs that look alike come from different tables or passages of the source.

Legend:
[1] = biological target: T1, Pry1 (Saccharomyces cerevisiae, UniProt P47032); experiment: Microscale thermophoresis; settings: His-tagged Pry1, N/A where there is no binding, mean ± SD of three experiments
T1 construct: made in house; host or cells: Escherichia coli BL21
T1 sequence (P47032 20-299): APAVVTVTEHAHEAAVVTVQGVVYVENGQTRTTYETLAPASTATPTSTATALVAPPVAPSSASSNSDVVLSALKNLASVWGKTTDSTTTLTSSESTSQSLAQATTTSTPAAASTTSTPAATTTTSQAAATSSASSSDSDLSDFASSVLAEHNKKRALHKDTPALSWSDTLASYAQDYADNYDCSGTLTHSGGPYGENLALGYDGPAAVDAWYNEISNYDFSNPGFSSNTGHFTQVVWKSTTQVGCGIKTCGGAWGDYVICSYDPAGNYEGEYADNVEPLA
Experimental: (§1) Microscale thermophoresis was performed using a Monolith NT.115 from Nanotemper Technologies (Munich, Germany) (Seidel et al., [2012]; Shang et al., [2012]; Zillner et al., [2012]). His-tagged protein (Pry1 or Na-ASP-2) was fluorescently labeled using the RED-tris-NTA His-tag protein labeling kit (Nanotemper Technologies). Labeled protein (Pry1 or Na-ASP-2) was subsequently added to serial dilution of unlabeled ligand (ascarosides or their fatty acid moieties) in binding buffer (20 mM Tris pH 7.5, 30 mM NaCl, 0.05% Triton X-100). Each sample was loaded into standard glass capillaries, and measurements were performed at 60% laser power setting. Dissociation constant Kd was obtained by plotting the normalized fluorescence (Fnorm) against the logarithm of ligand concentration. Experiments were performed in triplicates and the Kd model of the MO Affinity Analysis software (Nanotemper Technologies, Munich, Germany) was used for data fitting.
(§2) Figure 5 Na-ASP-2 selectively binds ascr#3 but not oscr#10. Binding of ascarosides and their fatty acid moieties by Pry1 and Na-ASP-2 as measured by microscale thermophoresis. (A,G) Palmitic acid; (B,H) ascr#3; (C,I) oscr#10; (D,J) (R)-8-hydroxynonanoic acid; (E,K) (R, E)-8-hydroxynon-2-enoic acid; (F,L) 9-hydroxynonanoic acid. Pry1 binds palmitic acid and free hydroxylated nanonoic acids with similar affinities but binds neither the ascarosides ascr#3 and oscr#10. Na-ASP-2 binds palmitic acid, ascr#3 and free hydroxylated nanonoic acids with similar affinities but not oscr#10. The Kd values are indicated in each figure with N/A (not applicable) where there is no binding. Data represent mean ± SD of three independent experiments.

[2] = biological target: T2, Na-ASP-2 (Necator americanus, UniProt Q7Z1H1); experiment: Microscale thermophoresis; format: binding
T2 sequence (Q7Z1H1 entry or part of it): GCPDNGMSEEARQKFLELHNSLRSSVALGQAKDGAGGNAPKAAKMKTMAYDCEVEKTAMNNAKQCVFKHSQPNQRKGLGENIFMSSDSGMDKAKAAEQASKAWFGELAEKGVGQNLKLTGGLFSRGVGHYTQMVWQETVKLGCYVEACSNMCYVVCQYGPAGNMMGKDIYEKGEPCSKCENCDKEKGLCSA
Experimental: as §1, §2

[3] = biological target: T2, Na-ASP-2; experiment: [3H]-cholesterol radioligand binding and competition assay; settings: for competition with [3H]-cholesterol for binding to Na-ASP-2: unlabeled ligand vs 50 pmol [3H]-cholesterol, 100 pmol Na-ASP-2
Experimental: (§3) The radioligand binding assay was performed as described previously (Im et al., [2005]; Choudhary and Schneiter, [2012]). Hundred pmol of purified untagged CAP protein (Na-ASP-2 or Pry1) in binding buffer (20 mM Tris, pH 7.5, 30 mM NaCl, 0.05% Triton X-100) was incubated for 1 h at 30 °C with different concentrations of either [^3H]-cholesterol or [^3H]-palmitic acid. Protein was removed from unbound ligand by adsorption to Q-sepharose beads (GE Healthcare, USA), the beads were washed, protein was eluted and the protein-bound radioligand was quantified by scintillation counting. For competition binding assays, specified concentrations of unlabeled cholesterol, palmitic acid or ligands, were included in the binding reaction. Non-specific binding was determined by performing the assays without the addition of protein. Statistical significance of data was analyzed by multiple t-test (GraphPad Prism, La Jolla, CA).
Figure 3 Na-ASP-2 binds both cholesterol and free palmitic acid. (A) Ligand binding of [^3H]-cholesterol to Na-ASP-2. Purified Na-ASP-2 (100 pmol) was incubated with increasing concentrations of [^3H]-cholesterol (100–400 pmol), in absence and presence of 400 pmol of unlabeled cholesterol (chol). The protein was separated from the unbound ligand by adsorption to an anion-exchange matrix and the protein-bound radioligand was quantified by scintillation counting. […] Data represent mean ± SD of 3 independent experiments. (B) Competitive binding of unlabeled cholesterol (50 or 5,000 pmol) to Na-ASP-2. Binding of [^3H]-cholesterol (50 pmol) to Na-ASP-2 (100 pmol) was assessed in the presence of the indicated concentrations of unlabeled cholesterol (chol). Each data point is the average of duplicate assays and represents the amount of [^3H]-cholesterol bound relative to a control containing no unlabeled cholesterol. (C) Ligand binding of [^3H]-palmitic acid to Na-ASP-2. Purified Na-ASP-2 (100 pmol) was incubated with increasing concentrations of [^3H]-palmitic acid (100–400 pmol), in absence and presence of 400 pmol of unlabeled palmitic acid (pal). (D) Competitive binding of unlabeled palmitic acid (50 or 5,000 pmol) to Na-ASP-2. Binding of [^3H]-palmitic acid (50 pmol) to Na-ASP-2 (100 pmol) was assessed in the presence of the indicated concentration of unlabeled palmitic acid (pal). Each data point is the average of duplicate assays and represents the amount of [^3H]-palmitic acid bound relative to a control containing only labeled palmitic acid. […]
(§4) Figure 4 Binding of ligands to Na-ASP-2 and Pry1. […] Binding of [^3H]-cholesterol (50 pmol) to Na-ASP-2 (100 pmol) was assessed in the presence of (50 pmol and 500 pmol) of unlabeled ascarosides or fatty acid moieties (1-5) (B) Fatty acids moieties and ascr#3 compete with [^3H]-palmitic acid for binding to Na-ASP-2. […]

[4] = biological target: T2, Na-ASP-2; experiment: [3H]-palmitic acid radioligand binding and competition assay; settings: for competition with [3H]-palmitic acid for binding to Na-ASP-2: 50 or 500 pmol unlabeled ligand vs 50 pmol [3H]-palmitic acid, 100 pmol Na-ASP-2
Experimental: as §3
Figure 3 Na-ASP-2 binds both cholesterol and free palmitic acid. (A) Ligand binding of [^3H]-cholesterol to Na-ASP-2. Purified Na-ASP-2 (100 pmol) was incubated with increasing concentrations of [^3H]-cholesterol (100–400 pmol), in absence and presence of 400 pmol of unlabeled cholesterol (chol). The protein was separated from the unbound ligand by adsorption to an anion-exchange matrix and the protein-bound radioligand was quantified by scintillation counting. […] Data represent mean ± SD of 3 independent experiments. […] Binding of [^3H]-cholesterol (50 pmol) to Na-ASP-2 (100 pmol) was assessed in the presence of the indicated concentrations of unlabeled cholesterol (chol). […] Binding of [^3H]-palmitic acid (50 pmol) to Na-ASP-2 (100 pmol) was assessed in the presence of the indicated concentration of unlabeled palmitic acid (pal). […]
as §4

[5] = biological target: T1, Pry1; experiment: [3H]-palmitic acid competition binding assay; settings: 100 pmol Pry1; for competition with [3H]-palmitic acid for binding to Pry1, excess ligand: excess unlabeled ligand (500 pmol) vs 50 pmol [3H]-palmitic acid; for competition with [3H]-palmitic acid for binding to Pry1: unlabeled ligand vs 50 pmol [3H]-palmitic acid
Experimental: as §3
Figure 4 Binding of ligands to Na-ASP-2 and Pry1. (A) Free fatty acids and ascarosides fail to compete with [^3H]-cholesterol for binding to Na-ASP-2. Binding of [^3H]-cholesterol (50 pmol) to Na-ASP-2 (100 pmol) was assessed in the presence of (50 pmol and 500 pmol) of unlabeled ascarosides or fatty acid moieties (1-5) (B) Fatty acids moieties and ascr#3 compete with [^3H]-palmitic acid for binding to Na-ASP-2. (C) Only fatty acids moieties compete [^3H]-palmitic acid for binding to Pry1. Competitive binding was tested with either 50 or 500 pmol of the unlabeled ligands and 50 pmol of [^3H]-palmitic acid for binding to 100 pmol purified Na-ASP-2 or Pry1. The ascarosides tested are (1) (ascr#3) and (2) (oscr#10) while the fatty acids are 3 [(R)-8-hydroxynonanoic acid], 4 [(R, E)-8-hydroxynon-2-enoic acid], and 5 (9-hydroxynonanoic acid). Data represent mean ± SD of 3 independent experiments. Asterisks denote statistical significance relative to the control containing only the radiolabeled ligand and either purified Na-ASP-2 or Pry1. (**p < 0.001; *p < 0.01). n.s., not significant.

[6] = biological target: Bm-VAL-1; design: method as in earlier work; settings: ref Kelleher et al., 2014, Darwiche et al., 2016, 2018, Asojo et al., read-out: cholesterol binding affinity; cited from earlier work
[7] = biological target: Hp-VAL-4; design: method as in earlier work; settings: ref Kelleher et al., 2014, Darwiche et al., 2016, 2018, Asojo et al., read-out: cholesterol binding affinity; cited from earlier work
[8] = biological target: Sm-VAL-4; design: method as in earlier work; settings: ref Kelleher et al., 2014, Darwiche et al., 2016, 2018, Asojo et al., read-out: cholesterol binding affinity; cited from earlier work
[9] = biological target: Pry1; design: method as in earlier work; settings: ref Kelleher et al., 2014, Darwiche et al., 2016, 2018, Asojo et al., read-out: Kd for palmitic acid; cited from earlier work
[10] = biological target: Bm-VAL-1; design: method as in earlier work; settings: ref Kelleher et al., 2014, Darwiche et al., 2016, 2018, Asojo et al., read-out: Kd for palmitic acid; cited from earlier work
[11] = biological target: tablysin-15; settings: ref Kelleher et al., 2014, Darwiche et al., 2016, 2018, Asojo et al., read-out: Kd for palmitic acid; cited from earlier work

Question: With O=C(O)CCCCCCCCO [9-hydroxynonanoic acid] as the molecule, how does the Kd ([1]; read-out: Kd) read?
Answer: 650 ± 1.7 µM

Question: And the Kd [2]?
Answer: 230 ± 2.5 µM

Question: With C[C@@H](O)CCCCCCC(=O)O [(R)-8-hydroxynonanoic acid] as the molecule, how does the Kd ([1]; read-out: Kd) read?
Answer: 600 ± 1.9 µM

Question: And the Kd [2]?
Answer: 500 ± 2.3 µM

Question: Which Kd ([1]; read-out: Kd) does the source give for C[C@@H](O)CCCC/C=C/C(=O)O [(R,E)-8-hydroxynon-2-enoic acid, (R, E)-8-hydroxynon-2-enoic acid] here?
Answer: 900 ± 0.9 µM

Question: And the Kd [2]?
Answer: 290 ± 2 µM

Question: Which “competition with [3H]-cholesterol for binding to Na-ASP-2” value (shortened to “competition with [3H]-cholesterol”) [3] does the source give for C[C@H](CCCC/C=C/C(=O)O)O[C@@H]1O[C@@H](C)[C@H](O)C[C@H]1O [ascr#3] here?
Answer: neither ascarosides [ascr#3 (1) and oscr#10 (2)] nor fatty acids (3-5) competed

Question: And the “competition with [3H]-palmitic acid for binding to Na-ASP-2” value [4]?
Answer: competed

Question: What about the “competition with [3H]-palmitic acid for binding to Pry1, excess ligand” value [5] of the same molecule?
Answer: could not be competed

Question: And the “competition with [3H]-palmitic acid for binding to Pry1” value [5]?
Answer: neither ascr#3 (1) nor oscr#10 (2) bound

Question: What about the Kd [1] of the same molecule?
Answer: does not bind

Question: What about the Kd [2] of the same molecule?
Answer: 142 µM

Question: For CC(C)CCC[C@@H](C)[C@H]1CC[C@H]2[C@@H]3CC=C4C[C@@H](O)CC[C@]4(C)[C@H]3CC[C@]12C [cholesterol], which Kd [3] is on record?
Answer: 2.1 µM

Question: What about the “competition with [3H]-cholesterol” value [3] of the same molecule?
Answer: reduced binding of the radioligand

Question: What about the Kd [6] of the same molecule?
Answer: 0.9 µM

Question: And the Kd [7]?
Answer: 1.53 µM

Question: What about the Kd [8] of the same molecule?
Answer: 2.4 µM

Question: With C[C@@H]1O[C@@H](OCCCCCCCCC(=O)O)[C@H](O)C[C@H]1O [oscr#10] as the molecule, how does the “competition with [3H]-cholesterol” value [3] read?
Answer: neither ascarosides [ascr#3 (1) and oscr#10 (2)] nor fatty acids (3-5) competed

Question: What about the “competition with [3H]-palmitic acid for binding to Pry1, excess ligand” value [5] of the same molecule?
Answer: could not be competed

Question: What about the “competition with [3H]-palmitic acid for binding to Pry1” value [5] of the same molecule?
Answer: neither ascr#3 (1) nor oscr#10 (2) bound

Question: And the Kd [1]?
Answer: does not bind

Question: And the Kd ([2]; microscale thermophoresis, His-tagged Na-ASP-2, N/A where there is no binding, mean ± SD of three experiments)?
Answer: does not bind

Question: With CCCCCCCCCCCCCCCC(=O)O [palmitic acid, reference compound] as the molecule, how does the Kd [4] read?
Answer: 95 µM

Question: What about the “competition with [3H]-palmitic acid for binding to Na-ASP-2” value [4] of the same molecule?
Answer: reduced

Question: What about the Kd ([1]; read-out: Kd) of the same molecule?
Answer: 120 ± 1.2 µM

Question: What about the Kd [2] of the same molecule?
Answer: 220 ± 1 µM

Question: And the Kd [9]?
Answer: 112 µM

Question: What about the Kd [10] of the same molecule?
Answer: 83 µM

Question: What about the Kd [11] of the same molecule?
Answer: 94 µM
